Measured values taken from patent US8329904B2, “Azacyclic derivatives” (Hoffmann-La Roche Inc., priority 2009, dated 2012).

Target: T1, human HSL (Homo sapiens, UniProt Q05469)
T1 construct: overlapping PCR to generate a full length human HSL ORF with a 3′-His6 tag; His6 (C); made in house; host or cells: High 5 insect cells (baculovirus, pFast-BAC)
T1 sequence (Q05469 1-1076): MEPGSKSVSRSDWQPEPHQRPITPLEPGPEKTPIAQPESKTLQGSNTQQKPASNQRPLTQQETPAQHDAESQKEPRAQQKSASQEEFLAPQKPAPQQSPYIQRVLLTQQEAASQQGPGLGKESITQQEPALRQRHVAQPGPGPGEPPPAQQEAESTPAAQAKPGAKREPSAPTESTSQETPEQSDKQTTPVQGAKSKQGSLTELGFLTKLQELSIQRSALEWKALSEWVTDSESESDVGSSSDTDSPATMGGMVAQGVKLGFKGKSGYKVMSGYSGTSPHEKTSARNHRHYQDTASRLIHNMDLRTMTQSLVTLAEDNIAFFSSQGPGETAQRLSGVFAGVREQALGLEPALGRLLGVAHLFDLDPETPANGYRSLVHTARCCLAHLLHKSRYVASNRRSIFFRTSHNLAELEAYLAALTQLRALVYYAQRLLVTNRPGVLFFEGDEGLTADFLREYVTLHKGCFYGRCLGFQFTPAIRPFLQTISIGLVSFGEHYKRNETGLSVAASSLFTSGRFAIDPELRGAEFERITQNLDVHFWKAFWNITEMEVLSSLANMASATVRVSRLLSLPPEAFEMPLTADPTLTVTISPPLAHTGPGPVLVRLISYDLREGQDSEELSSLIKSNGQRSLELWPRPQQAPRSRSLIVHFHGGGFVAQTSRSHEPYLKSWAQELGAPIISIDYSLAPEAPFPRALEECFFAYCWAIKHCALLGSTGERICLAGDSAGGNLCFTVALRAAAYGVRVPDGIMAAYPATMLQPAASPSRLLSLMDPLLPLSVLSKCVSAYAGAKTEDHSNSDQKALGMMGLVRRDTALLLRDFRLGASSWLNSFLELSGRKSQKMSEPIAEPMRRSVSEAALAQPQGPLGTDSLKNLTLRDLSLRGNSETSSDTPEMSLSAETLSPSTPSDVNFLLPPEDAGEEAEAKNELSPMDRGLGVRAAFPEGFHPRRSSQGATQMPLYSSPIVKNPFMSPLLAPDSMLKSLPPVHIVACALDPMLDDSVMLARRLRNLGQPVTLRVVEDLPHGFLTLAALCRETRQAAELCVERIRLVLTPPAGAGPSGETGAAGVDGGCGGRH
Assay: Human Hormone-Sensitive Lipase (HSL) Enzyme Inhibition Assay
Assay type: biochemical
Settings: colorimetric assay, 2,3-dimercapto-1-propanol tributyrate (DMPT) substrate, 37° C. for 20 minutes, absorbance at 405 nm; read-out: HSL hum IC50
Outline: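 Colorimetric thioester hydrolysis: compounds in DMSO series mixed with DMPT (1.5 mM) in MOPS pH 7.2 with BSA, then baculovirus-expressed His6-tagged full-length human HSL added, 37° C, 20 min. DTNB plus detergents added, 15 min room temperature, absorbance at 405 nm.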

SMILES	IC50 [nM]
O=C1N(c2ccc(OC(F)(F)F)cc2)CCC12CCN(S(=O)(=O)c1cccnc1OCc1ccccc1)CC2 [Example 195, 8-(2-Benzyloxy-pyridine-3-sulfonyl)-2-(4-trifluoromethoxy-phenyl)-2,8-diaza-spiro[4.5]decan-1-one]	50
Cc1ccc(S(=O)(=O)N2CCC3(CCN(c4ccc(OC(F)(F)F)cc4)C3=O)CC2)nn1 [Example 204, 8-(6-Methyl-pyridazine-3-sulfonyl)-2-(4-trifluoromethoxy-phenyl)-2,8-diaza-spiro[4.5]decan-1-one]	140
O=C1N(c2ccc(OC(F)(F)F)cc2)CCC12CCN(S(=O)(=O)CC(O)C1CC1)CC2 (centres unmarked) [Example 208, 8-(2-Cyclopropyl-2-hydroxy-ethanesulfonyl)-2-(4-trifluoromethoxy-phenyl)-2,8-diaza-spiro[4.5]decan-1-one]	160
COC(CS(=O)(=O)N1CCC2(CCN(c3ccc(OC(F)(F)F)cc3)C2=O)CC1)C1CC1 (centres unmarked) [Example 209, 8-(2-Cyclopropyl-2-methoxy-ethanesulfonyl)-2-(4-trifluoromethoxy-phenyl)-2,8-diaza-spiro[4.5]decan-1-one]	50
O=C1N(c2ccc(OC(F)(F)F)cc2)CCC12CCN(S(=O)(=O)CC1(O)CCCC1)CC2 [Example 210, 8-(1-Hydroxy-cyclopentylmethanesulfonyl)-2-(4-trifluoromethoxy-phenyl)-2,8-diaza-spiro[4.5]decan-1-one]	60
COC1(CS(=O)(=O)N2CCC3(CCN(c4ccc(OC(F)(F)F)cc4)C3=O)CC2)CCCC1 [Example 211, 8-(1-Methoxy-cyclopentylmethanesulfonyl)-2-(4-trifluoromethoxy-phenyl)-2,8-diaza-spiro[4.5]decan-1-one]	130
CC(C)(O)CS(=O)(=O)N1CCC2(CCN(c3ccc(OC(F)(F)F)cc3)C2=O)CC1 [Example 212, 8-(2-Hydroxy-2-methyl-propane-1-sulfonyl)-2-(4-trifluoromethoxy-phenyl)-2,8-diaza-spiro[4.5]decan-1-one]	200
O=C1N(c2ccc(OC(F)(F)F)cc2)CCC12CCN(S(=O)(=O)/C=C1/CCCO1)CC2 [Example 213, 8-[Dihydro-furan-(2Z)-ylidenemethanesulfonyl]-2-(4-trifluoromethoxy-phenyl)-2,8-diaza-spiro[4.5]decan-1-one]	150
O=C1N(c2ccc(OC(F)(F)F)cc2)CCC12CCN(S(=O)(=O)CC1CCCO1)CC2 (centres unmarked) [Example 214, 8-(Tetrahydro-furan-2-ylmethanesulfonyl)-2-(4-trifluoromethoxy-phenyl)-2,8-diaza-spiro[4.5]decan-1-one]	100
CCC(C)(O)CC(=O)N1CCC2(CC1)CCN(c1ccc(OC(F)(F)F)cc1)C2=O (centres unmarked) [Example 215, 8-(3-Hydroxy-3-methyl-pentanoyl)-2-(4-trifluoromethoxy-phenyl)-2,8-diaza-spiro[4.5]decan-1-one]	470
O=C(CC1CCC1)N1CCC2(CC1)CCN(c1ccc(OC(F)(F)F)cc1)C2=O [Example 216, 8-(2-Cyclobutyl-acetyl)-2-(4-trifluoromethoxy-phenyl)-2,8-diaza-spiro[4.5]decan-1-one]	250
CC(C)OCC(=O)N1CCC2(CC1)CCN(c1ccc(OC(F)(F)F)cc1)C2=O [Example 217, 8-(2-Isopropoxy-acetyl)-2-(4-trifluoromethoxy-phenyl)-2,8-diaza-spiro[4.5]decan-1-one]	220
CC(C)(C)OCC(=O)N1CCC2(CC1)CCN(c1ccc(OC(F)(F)F)cc1)C2=O [Example 218, 8-(2-tert-Butoxy-acetyl)-2-(4-trifluoromethoxy-phenyl)-2,8-diaza-spiro[4.5]decan-1-one]	100
O=C(N1CCC2(CC1)CCN(c1ccc(OC(F)(F)F)cc1)C2=O)C1(O)CC1 [Example 219, 8-(1-Hydroxy-cyclopropanecarbonyl)-2-(4-trifluoromethoxy-phenyl)-2,8-diaza-spiro[4.5]decan-1-one]	280
O=C(COCc1ccccc1)N1CCC2(CC1)CCN(c1ccc(OC(F)(F)F)cc1)C2=O [Example 220, 8-(2-Benzyloxy-acetyl)-2-(4-trifluoromethoxy-phenyl)-2,8-diaza-spiro[4.5]decan-1-one]	80

Continued, values first:

IC50 [nM]	SMILES
230	O=C1N(c2ccc(OC(F)(F)F)cc2)CCC12CCN(S(=O)(=O)c1cccnc1O)CC2 [Example 196, 8-(2-Hydroxy-pyridine-3-sulfonyl)-2-(4-trifluoromethoxy-phenyl)-2,8-diaza-spiro[4.5]decan-1-one]
80	Nc1ncccc1S(=O)(=O)N1CCC2(CCN(c3ccc(OC(F)(F)F)cc3)C2=O)CC1 [Example 197, 8-(2-Amino-pyridine-3-sulfonyl)-2-(4-trifluoromethoxy-phenyl)-2,8-diaza-spiro[4.5]decan-1-one]
150	O=C1N(c2ccc(OC(F)(F)F)cc2)CCC12CCN(S(=O)(=O)c1ccc(Cl)nc1)CC2 [Example 198, 8-(6-Chloro-pyridine-3-sulfonyl)-2-(4-trifluoromethoxy-phenyl)-2,8-diaza-spiro[4.5]decan-1-one]
140	O=C1N(c2ccc(OC(F)(F)F)cc2)CCC12CCN(S(=O)(=O)c1cnccc1Cl)CC2 [Example 199, 8-(4-Chloro-pyridine-3-sulfonyl)-2-(4-trifluoromethoxy-phenyl)-2,8-diaza-spiro[4.5]decan-1-one]
170	COc1ccncc1S(=O)(=O)N1CCC2(CCN(c3ccc(OC(F)(F)F)cc3)C2=O)CC1 [Example 200, 8-(4-M ethoxy-pyridine-3-sulfonyl)-2-(4-trifluoromethoxy-phenyl)-2,8-diaza-spiro[4.5]decan-1-one]
50	O=C1N(c2ccc(OC(F)(F)F)cc2)CCC12CCN(S(=O)(=O)c1ccccn1)CC2 [Example 201, 8-(Pyridine-2-sulfonyl)-2-(4-trifluoromethoxy-phenyl)-2,8-diaza-spiro[4.5]decan-1-one]
160	O=C1N(c2ccc(OC(F)(F)F)cc2)CCC12CCN(S(=O)(=O)c1ncccn1)CC2 [Example 202, 8-(Pyrimidine-2-sulfonyl)-2-(4-trifluoromethoxy-phenyl)-2,8-diaza-spiro[4.5]decan-1-one]
250	O=C1N(c2ccc(OC(F)(F)F)cc2)CCC12CCN(S(=O)(=O)c1ccncc1)CC2 [Example 203, 8-(Pyridine-4-sulfonyl)-2-(4-trifluoromethoxy-phenyl)-2,8-diaza-spiro[4.5]decan-1-one]
60	O=C1N(c2ccc(OCC(F)(F)F)cc2)CCC12CCN(S(=O)(=O)c1cccnc1)CC2 [Example 205, 8-(Pyridine-3-sulfonyl)-2-[4-(2,2,2-trifluoro-ethoxy)-phenyl]-2,8-diaza-spiro[4.5]decan-1-one]
30	O=C1N(c2ccc(OCC(F)(F)F)cc2)CCC12CCN(S(=O)(=O)c1cccnc1Cl)CC2 [Example 206, 8-(2-Chloro-pyridine-3-sulfonyl)-2-[4-(2,2,2-trifluoro-ethoxy)-phenyl]-2,8-diaza-spiro[4.5]decan-1-one]
60	CNc1ncccc1S(=O)(=O)N1CCC2(CCN(c3ccc(OCC(F)(F)F)cc3)C2=O)CC1 [Example 207, 8-(2-Methylamino-pyridine-3-sulfonyl)-2-[4-(2,2,2-trifluoro-ethoxy)-phenyl]-2,8-diaza-spiro[4.5]decan-1-one]
